This note sets out measurements from patent US20190151304A1, “METHODS AND PHARMACEUTICAL COMPOSITIONS FOR THE TREATMENT OF AUTOIMMUNE INFLAMMATORY” (INSERM (INSTITUT NATIONAL DE LA SANTÉ ET DE LA RECHERCJAE …, priority 2016, published 2019).

The subject of this assay is cytokines secretion in colon extracts. Nature of the assay: Cytokine assays in colon extracts of DSS-induced colitis mice. The settings on record: OxA treatment. The class given is in vivo. The procedure: FIG. 3: OXA effects on cytokines secretion in DSS-induced colitis mice. Right, Colons of DSS untreated mice (white), DSS treated mice (gray) and DSS treated mice associated to OxA treatment (black) were resected after animal sacrifice. Then, protein extraction was performed by tissue disruption. Cytokines were determined using Cytokine CBA kits (see Material and Methods). Left, after colon resection, RNA were extracted from colonic tissue and qPCR was performed using specific oligonucleotides for IL8 homolog and IL1B.
These observations are confirmed by histologic aspect of colon epithelium (histologic scoring by a GI pathologist). Thus, OxA has probably an anti-inflammatory effect on DSS-induced colitis. To confirm this hypothesis, we have investigated the anti-inflammatory effect of OxA treatment on cytokines secretion in colon extracts from DSS-treated mice. […] In contrast, OxA has no effect on INFγ, IL10, and IL12 cytokine secretion in colon extracts (FIG. 3).
Cytokine assays: Mice were sacrificed and colons were resected. Proteins were extracted from colon by tissue disruption in PBS using Tissue Lyser (Qiagen, Courtaboeuf, France). Various cytokines (see FIG. 3) were determined using Cytokine CBA kits (BD Sciences, Le Pont de Claix, France).

No end group written: not given here.

As to “OxA: neuropeptide, endogenous ligand of OX1R and OX2R, with two disulphide bridges (QPLPDCCRQKTCSCRLYELLHGAGNHAAGILTL; disulfide (positions not given here); ends not checked; also: two disulphide bridges, pairing not given here; UniProt O43612 34-66, looked up)”, the “IL6 secretion in colon extracts” value was “reduces”, the “IL10 secretion in colon extracts” value is recorded as “no effect”, the “IL12 secretion in colon extracts” value is listed as “no effect” and the “INFγ secretion in colon extracts” value is “no effect”. The “TNFα secretion in colon extracts” value was “reduces”. For the same substance, where the note is “qPCR per FIG. 3”, the “IL1B in colon extracts” value was “reduces” and the “IL8 homolog in colon extracts” value is on record as “reduces”.
